# Results taken from publication PMC12265377, “CC48 a new CB2R agonist/FAAH inhibitor dual drug blocks gastric cancer progression and overcomes paclitaxel resistance” (Journal of Experimental & Clinical Cancer Research : CR, 2025).
# Legend:
# HGC27-S cells [1] = experiment: ROS determination assay (DCF-DA); type: cell-based, human; settings: 1 µM, 48 h, vs untreated cells
# Procedure: (§1) For ROS analysis the procedure described in [26] was adapted. […] After the incubation, all the samples were incubated for 30 minutes at 37°C in the dark with 50 µM 2’,7’-dichlorofluorescein diacetate, DCF-DA.
# (§2) Cells were then washed, detached with trypsin/EDTA solution, centrifuged at 12,000 g for 10 min and re-suspended in1mL PBS. At least 10.000 total events were acquired using an Attune Nxt Acoustic Focusing Cytometer (Life Technologies Corporation) equipped with a blue laser (488 nm). Analysis was performed and data were visualized using Attune™ NxT v2.6 Software. The percentage of green fluorescent cells and the green fluorescence median were measured on a mono-parametric histogram based on DCF-DA fluorescence.
# HGC27-R cells [2] = experiment: ROS determination assay (DCF-DA); type: cell-based, human; settings: 1 µM, 48 h, vs untreated cells
# Procedure: as §1, §2
# [3] = system: HGC27-S/R and AGS cell lines; experiment: Autophagy assay (western blot of autophagy proteins); type: cell-based, human; settings: 48 h, 1 and 10 µM (AM630 1 and 6 µM)
# Procedure: Cells were rinsed with ice-cold lysis buffer (50 mM Tris,10 mM EDTA, 1% v/v Triton-X100), supplemented with protease inhibitor cocktail set III (80 µM aprotinin, 5 mM bestatin, 1.5 mM leupeptin, 1 mM pepstatin; Sigma-Merck, St. Louis, MO), 2 mM phenylmethyl sulfonyl fluoride and 1 mM Na3VO4, then sonicated and centrifuged at 13,000 g for 10 min at 4 °C. 20 µg protein extracts were subjected to SDS-PAGE and probed with the following antibodies: anti-ATG5 (#ab108327, diluted 1:1000), anti-ATG7 (#ab52472, diluted 1:5000), anti-ATG12 (#ab303488, diluted 1:1000), anti-Beclin (#ab210498, diluted 1:1000), anti-p62 (#ab109012, diluted 1:10000), anti-LC3 (#ab192890, diluted 1:2000)(all from Abcam, Cambridge, UK) or anti-β-tubulin antibody (#sc-5274, diluted 1:1000; Santa Cruz Biotechnology Inc.,Santa Cruz, CA, USA), followed by incubation with a peroxidase conjugated secondary antibody (Bio-Rad Laboratories, Hercules, CA). After washing in Tris-buffered saline (TBS)-Tween 0.1% v/v solution, proteins were detected by enhanced chemiluminescence (Bio-Rad Laboratories).Total protein expression was quantified using the ImageJ software (http://rsb.info.nih.gov/ij/). The expression level of each of the investigated protein was normalized to the β-tubulin level.
# HGC27-S cells [4] = experiment: Muse Annexin V apoptosis assay; type: cell-based, human; settings: 48 h, 6 µM AM630, 10 µM others
# Text: (§3) After the specified drug treatments, the cells were processed using the Muse Annexin V/Dead Cell Assay Kit (Luminex Corporation, Austin, USA) for quantitative analysis of live, early/ late apoptotic, and dead cells on a Muse Cell Analyzer. Briefly, the assay utilized Annexin V to detect phosphatidylserine on the external membrane of apoptotic cells. The fluorescent signal emitted by dye-conjugated antibodies was detected by flow cytometry technology (Muse Cell Analyzer, Luminex Corporation, Austin, USA). 7-Amino-Actinomycin D (7-AAD) dead cell marker was also used. The cells were then analyzed according to the user’s guide. […] After 48 h treatments the cells were processed according to the user’s guide and analyzed with the Muse caspase-3/7 kit (Millipore).The assay provides the relative percentage of living, early/late apoptotic or dead cells.
# AGS cells [5] = experiment: Muse Annexin V apoptosis assay; type: cell-based, human; settings: 48 h, 6 µM AM630, 10 µM others
# Text: as §3
# HGC27-S cells [6] = experiment: Muse caspase 3/7 activation assay; type: cell-based, human; settings: 48 h
# Text: as §3
# NCI-N87 cells [7] = experiment: Muse caspase 3/7 activation assay; type: cell-based, human
# Text: as §3
# HGC27-R cells [8] = experiment: Muse caspase 3/7 activation assay; type: cell-based, human; settings: 48 h
# Text: as §3
# CB2R [9] = system: CB2R; parameters: method as in PMID 7776818, PMID 10188977, PMID 36657299, PMID 20393015; settings: cited from earlier work
# CB2R [10] = target: CB2R; parameters: method as in PMID 7776818, PMID 36542836, PMID 36657299, PMID 20393015; settings: ± SEM; read-out: CB2R affinity Ki; cited from earlier work
# HGC27-R cells [11] = experiment: Muse Ki67 cell proliferation assay; type: cell-based, human; settings: for percentage of Ki67+ cells: combined with PTX (10 µM compound; 6 µM AM630)
# Text: (§4) After the specified drug treatments, the cells were processed with the Muse Ki67 cell proliferation kit, which identified actively proliferating cells based on the expression of Ki67, a nuclear protein present in the active phases of the cell cycle (G1, S, G2, and M phases) and absent in the resting G0 phase. The Muse Ki67 Proliferation Assay was used with the Guava Muse Cell Analyzer according to the manufacturer’s instructions (Luminex Corporation, Austin, USA). Briefly, the cells were stained after fixation and permeabilization procedures, using Hu Ki67 or Hu IgG1 control fluorochrome-conjugated antibodies to distinguish Ki67(+) or Ki67(-) cells, respectively. The software provided the percentage of both Ki67(+) and Ki67(-) cells.
# CB1R = settings: cited from earlier work
# AGS cells [12] = experiment: VEGFA in cell culture medium (ELISA); type: cell-based, human; settings: 10 µM, 48 h, untreated 8.3
# Procedure: (§5) The amount of VEGFA secreted in the culture medium by HGC27-S/R and AGS treated cells was measured using a highly sensitive Enzyme-Linked Immunosorbent Assay (ELISA), Quantikine Kit ELISA (R&D Systems, Minneapolis, MN, USA), according to the manufacturer’s instructions. The measured values were normalized to the number of cells.
# HGC27-R cells [13] = experiment: VEGFA in cell culture medium (ELISA); type: cell-based, human; settings: 10 µM, 48 h, untreated 10.5
# Procedure: as §5
# NCI-N87 cells [14] = experiment: Muse Ki67 cell proliferation assay; type: cell-based, human
# Text: as §4
# [15] = combination with 4 nM PTX, PTX alone 26.2%
# [16] = single treatment (4 nM PTX, 6 µM AM630, 10 µM others), untreated 13.05%
# [17] = NCI-N87, combination with 2 nM PTX, PTX alone 14.6%
# [18] = NCI-N87, single treatment (2 nM PTX, 6 µM AM630, 10 µM others), untreated 6.35%
# [19] = single treatment (4 nM PTX, 6 µM AM630, 10 µM others), untreated 18.9%
# [20] = NCI-N87, single treatment (10 µM compound; 2 nM PTX), control 78.2%
# [21] = representative flow cytometry chart, 48 h, 10 µM CC48, PTX, single or combined as labelled
SMILES,intracellular ROS production (HGC27-S cells [1]),ROS production (HGC27-R cells [2]),"expression of autophagy proteins (ATG5, ATG7, ATG12, Beclin-1, p62, LC3-II) [3]",increase in apoptotic cells compared to untreated cells (Annexin V) (HGC27-S cells [4]),increase in apoptotic cells compared to untreated cells (Annexin V) (AGS cells [5]),apoptotic cells (caspase 3/7 activation) (HGC27-S cells [6]; [15]),apoptotic cells (caspase 3/7 activation) (HGC27-S cells [6]; [16]),cells with activated caspase 3/7 (NCI-N87 cells [7]; [17]),cells with activated caspase 3/7 (NCI-N87 cells [7]; [18]),apoptotic cells (caspase 3/7 activation) (HGC27-R cells [8]; combination with 4 nM PTX),apoptotic cells (caspase 3/7 activation) (HGC27-R cells [8]; [19]),EC50 (CB2R [9]),Ki (CB2R [10]),percentage of Ki67+ cells (HGC27-R cells [11]),VEGFA secretion in culture medium (AGS cells [12]),VEGFA secretion in culture medium (HGC27-R cells [13]),percentage of Ki67+ cells (NCI-N87 cells [14]; [20]),further results
"COc1ccc(C(=O)c2c(C)n(CCN3CCOCC3)c3cc(I)ccc23)cc1 [AM630, reference compound]",significant increase in intracellular ROS production,induced an increase in ROS production,dose-dependent increase of autophagic proteins,8 fold,8 fold,44.3%,only a slight increase,15.9%,9.5%,62.4%,32.9%,0.9 nM,31.2 nM,51.3%,,,,
CCCCCNc1ccccc1C(=O)NC12CC3CC(CC(C3)C1)C2 [ASF151],,induced an increase in ROS production,less potent inducer of some autophagy-related proteins,,,no further increase over PTX,20.25%,15.9%,9.5%,50.4%,42%,560 nM,55.7 ± 10.2 nM,,4.4 pg/mL/cell,8 pg/mL/cell,68.3%,CB1R affinity % at 1µM (percentage of displacement at 1 µM) (CB1R; 1 µM): 31%^23
O=C(NC12CC3CC(CC(C3)C1)C2)c1ccccc1OCc1ccccc1 [CC48],significant increase in intracellular ROS production,,,2 fold,6 fold,62.7%,21%,23.3%,17.4%,61.4%,33.8%,124 nM,14.8 ± 4.49 nM,67.9%,5.8 pg/mL/cell,6.5 pg/mL/cell,60.9%,"dead cells (HGC27-S cells [6]; single treatment, untreated 6.6%): without affecting the number of dead cells; dead cells (NCI-N87 cells [7]; NCI-N87, single treatment, control 5.8% / 5.6%): 10.4%; Ki (CB1R; ± SEM, read-out: CB1R affinity Ki): 241.3 ± 2.4 nM; percentage of Ki67+ cells (NCI-N87 cells [14]; NCI-N87, cotreatment with PTX, PTX alone 68.1%): 59.9%; Ki67(+) cells (HGC27-R cells [11]; [21]): 84.00%; Ki67(-) cells (HGC27-R cells [11]; [21]): 16.00%"
